{
  "source": "ChEMBL document CHEMBL3600337",
  "about": "“Chemoenzymatic synthesis and cytotoxicity of oenanthotoxin and analogues” (Bioorg Med Chem, 2015)",
  "key": {"[1]": {"experiment": "Cytotoxicity against mouse NIH/3T3 cells after 96 hrs by sulforhodamine B assay", "assay_type": "cell-based", "conditions": "NIH3T3, 96 h"}, "HT-29": {"tested_on": "HT-29", "experiment": "Cytotoxicity against human HT-29 cells after 96 hrs by sulforhodamine B assay", "assay_type": "functional, cell-based", "conditions": "HT-29, 96 h"}, "8505C": {"tested_on": "8505C", "experiment": "Cytotoxicity against human 8505C cells after 96 hrs by sulforhodamine B assay", "assay_type": "functional, cell-based"}, "A2780": {"tested_on": "A2780", "experiment": "Cytotoxicity against human A2780 cells after 96 hrs by sulforhodamine B assay", "assay_type": "functional, cell-based", "conditions": "A2780, 96 h"}, "MCF7": {"tested_on": "MCF7", "experiment": "Cytotoxicity against human MCF7 cells after 96 hrs by sulforhodamine B assay", "assay_type": "functional, cell-based", "conditions": "MCF7, 96 h"}, "[2]": {"experiment": "Cytotoxicity against human 518A2 cells after 96 hrs by sulforhodamine B assay", "assay_type": "functional, cell-based", "conditions": "518A2, 96 h"}, "A549": {"tested_on": "A549", "experiment": "Cytotoxicity against human A549 cells after 96 hrs by sulforhodamine B assay", "assay_type": "functional, cell-based", "conditions": "A549, 96 h"}},
  "data": [
    {"compound": "C=C(C)[C@@H]1CC[C@]2(C(=O)O)CC[C@]3(C)[C@H](CC[C@@H]4[C@@]5(C)CC[C@H](O)C(C)(C)[C@@H]5CC[C@]43C)[C@@H]12", "note": "[BETULINIC ACID]", "values": [
      {"measurement": "EC50", "setting": "[1]", "result": 10, "unit": "µM"},
      {"measurement": "EC50", "setting": "HT-29", "result": 13.1, "unit": "µM"},
      {"measurement": "EC50", "setting": "8505C", "result": 6.7, "unit": "µM"},
      {"measurement": "EC50", "setting": "A2780", "result": 11, "unit": "µM"},
      {"measurement": "EC50", "setting": "MCF7", "result": 14.9, "unit": "µM"},
      {"measurement": "EC50", "setting": "[2]", "result": 11.9, "unit": "µM"},
      {"measurement": "EC50", "setting": "A549", "result": 14.8, "unit": "µM"}
    ]},
    {"compound": "CCCC(=O)CC/C=C/C=C/C#CC#C/C=C/C(=O)O", "values": [
      {"measurement": "EC50", "setting": "[1]", "result": "> 30", "unit": "µM"},
      {"measurement": "EC50", "setting": "HT-29", "result": "> 30", "unit": "µM"},
      {"measurement": "EC50", "setting": "8505C", "result": 19.3, "unit": "µM"},
      {"measurement": "EC50", "setting": "A2780", "result": "> 30", "unit": "µM"},
      {"measurement": "EC50", "setting": "MCF7", "result": "> 30", "unit": "µM"},
      {"measurement": "EC50", "setting": "[2]", "result": "> 30", "unit": "µM"},
      {"measurement": "EC50", "setting": "A549", "result": "> 30", "unit": "µM"}
    ]},
    {"compound": "CCCC(=O)CC/C=C/C=C/C#CC#C/C=C/COC(C)=O", "values": [
      {"measurement": "EC50", "setting": "[1]", "result": 14.2, "unit": "µM"},
      {"measurement": "EC50", "setting": "HT-29", "result": "> 30", "unit": "µM"},
      {"measurement": "EC50", "setting": "8505C", "result": 15.6, "unit": "µM"},
      {"measurement": "EC50", "setting": "A2780", "result": 4.7, "unit": "µM"},
      {"measurement": "EC50", "setting": "MCF7", "result": 21.6, "unit": "µM"},
      {"measurement": "EC50", "setting": "[2]", "result": 9.1, "unit": "µM"},
      {"measurement": "EC50", "setting": "A549", "result": 56.4, "unit": "µM"}
    ]},
    {"compound": "CCC[C@@H](O)CC/C=C/C=C/C#CC#C/C=C/COC(C)=O", "values": [
      {"measurement": "EC50", "setting": "[1]", "result": 16.9, "unit": "µM"},
      {"measurement": "EC50", "setting": "HT-29", "result": 26.3, "unit": "µM"},
      {"measurement": "EC50", "setting": "8505C", "result": 20.3, "unit": "µM"},
      {"measurement": "EC50", "setting": "A2780", "result": 6.8, "unit": "µM"},
      {"measurement": "EC50", "setting": "MCF7", "result": 21.3, "unit": "µM"},
      {"measurement": "EC50", "setting": "[2]", "result": 14.9, "unit": "µM"},
      {"measurement": "EC50", "setting": "A549", "result": 20.5, "unit": "µM"}
    ]},
    {"compound": "CCCC(=O)CC/C=C/C=C/C#CC#C/C=C/COC(=O)CCl", "values": [
      {"measurement": "EC50", "setting": "[1]", "result": 11.9, "unit": "µM"},
      {"measurement": "EC50", "setting": "HT-29", "result": "> 30", "unit": "µM"},
      {"measurement": "EC50", "setting": "8505C", "result": 19.3, "unit": "µM"},
      {"measurement": "EC50", "setting": "A2780", "result": 3.6, "unit": "µM"},
      {"measurement": "EC50", "setting": "MCF7", "result": 26.9, "unit": "µM"},
      {"measurement": "EC50", "setting": "[2]", "result": 12.6, "unit": "µM"},
      {"measurement": "EC50", "setting": "A549", "result": 5.1, "unit": "µM"}
    ]},
    {"compound": "CCCC(=O)CC/C=C/C=C/C#CC#C/C=C/CO", "values": [
      {"measurement": "EC50", "setting": "[1]", "result": 11.1, "unit": "µM"},
      {"measurement": "EC50", "setting": "HT-29", "result": 21.2, "unit": "µM"},
      {"measurement": "EC50", "setting": "8505C", "result": 18, "unit": "µM"},
      {"measurement": "EC50", "setting": "A2780", "result": 4.9, "unit": "µM"},
      {"measurement": "EC50", "setting": "MCF7", "result": 234, "unit": "µM"},
      {"measurement": "EC50", "setting": "[2]", "result": 19.1, "unit": "µM"},
      {"measurement": "EC50", "setting": "A549", "result": 19.7, "unit": "µM"}
    ]},
    {"compound": "CCC[C@@H](CC/C=C/C=C/C#CC#C/C=C/COC(C)=O)OC(C)=O", "values": [
      {"measurement": "EC50", "setting": "[1]", "result": 11.8, "unit": "µM"},
      {"measurement": "EC50", "setting": "HT-29", "result": 17.9, "unit": "µM"},
      {"measurement": "EC50", "setting": "8505C", "result": 16.8, "unit": "µM"},
      {"measurement": "EC50", "setting": "A2780", "result": 3.9, "unit": "µM"},
      {"measurement": "EC50", "setting": "MCF7", "result": 12.4, "unit": "µM"},
      {"measurement": "EC50", "setting": "[2]", "result": 14.7, "unit": "µM"},
      {"measurement": "EC50", "setting": "A549", "result": 14.5, "unit": "µM"}
    ]},
    {"compound": "CCCC(=O)CC/C=C/C=C/C#CC#C/C=C/COC(=O)c1ccccc1", "values": [
      {"measurement": "EC50", "setting": "[1]", "result": 26.7, "unit": "µM"},
      {"measurement": "EC50", "setting": "HT-29", "result": 7.9, "unit": "µM"},
      {"measurement": "EC50", "setting": "8505C", "result": 4.2, "unit": "µM"},
      {"measurement": "EC50", "setting": "A2780", "result": "> 30", "unit": "µM"},
      {"measurement": "EC50", "setting": "MCF7", "result": "> 30", "unit": "µM"},
      {"measurement": "EC50", "setting": "[2]", "result": 20.5, "unit": "µM"},
      {"measurement": "EC50", "setting": "A549", "result": 14.4, "unit": "µM"}
    ]},
    {"compound": "CCC[C@@H](O)CC/C=C/C=C/C#CC#C/C=C/CO", "note": "[OENANTHOTOXIN]", "values": [
      {"measurement": "EC50", "setting": "[1]", "result": 10.1, "unit": "µM"},
      {"measurement": "EC50", "setting": "HT-29", "result": "> 30", "unit": "µM"},
      {"measurement": "EC50", "setting": "8505C", "result": 10.5, "unit": "µM"},
      {"measurement": "EC50", "setting": "A2780", "result": 3.8, "unit": "µM"},
      {"measurement": "EC50", "setting": "MCF7", "result": 20.6, "unit": "µM"},
      {"measurement": "EC50", "setting": "[2]", "result": 17.1, "unit": "µM"},
      {"measurement": "EC50", "setting": "A549", "result": 10.9, "unit": "µM"}
    ]},
    {"compound": "CCCC(=O)CC/C=C/C=C/C#CC#C/C=C/C=O", "values": [
      {"measurement": "EC50", "setting": "[1]", "result": 13.2, "unit": "µM"},
      {"measurement": "EC50", "setting": "HT-29", "result": 22.2, "unit": "µM"},
      {"measurement": "EC50", "setting": "8505C", "result": 7.1, "unit": "µM"},
      {"measurement": "EC50", "setting": "A2780", "result": 7, "unit": "µM"},
      {"measurement": "EC50", "setting": "MCF7", "result": 5.9, "unit": "µM"},
      {"measurement": "EC50", "setting": "[2]", "result": "> 30", "unit": "µM"},
      {"measurement": "EC50", "setting": "A549", "result": "> 30", "unit": "µM"}
    ]}
  ]
}
